{
  "source": "paper PMC9814548",
  "about": "“Chemoenzymatic synthesis of 3-ethyl-2,5-dimethylpyrazine by L-threonine 3-dehydrogenase and 2-amino-3-ketobutyrate CoA ligase/L-threonine aldolase” (Communications Chemistry, 2021)",
  "target": "T1, CnKBL (Cupriavidus necator, UniProt Q0K313, H138F)",
  "T1 construct": "gene kbl; gene cloned in pET-28a (NcoI/XhoI), E. coli BL21(DE3), Ni-Sepharose and gel filtration; dimer; PLP on K246",
  "T1 sequence (Q0K313 entry or part of it H138F)": "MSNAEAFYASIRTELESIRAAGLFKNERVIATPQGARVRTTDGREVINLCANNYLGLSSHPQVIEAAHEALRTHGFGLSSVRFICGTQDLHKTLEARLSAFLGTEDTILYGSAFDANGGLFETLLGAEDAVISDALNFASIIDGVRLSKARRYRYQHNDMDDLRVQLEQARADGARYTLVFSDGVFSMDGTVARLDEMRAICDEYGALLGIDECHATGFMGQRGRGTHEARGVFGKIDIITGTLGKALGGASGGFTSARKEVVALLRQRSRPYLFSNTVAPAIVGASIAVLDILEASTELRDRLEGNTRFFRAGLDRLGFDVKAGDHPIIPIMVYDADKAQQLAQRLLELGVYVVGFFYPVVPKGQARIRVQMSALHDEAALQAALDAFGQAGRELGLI",
  "test": "threonine aldolase activity, coupled alcohol dehydrogenase assay",
  "assay_type": "biochemical",
  "details": "TA activity not detectable",
  "data": [
    {"smiles": "C[C@@H](O)[C@H](N)C(=O)O", "note": "[L-Thr]", "values": [
      {"measurement": "threonine aldolase activity, coupled alcohol dehydrogenase assay", "result": "TA activity of the H138F variant decreased to an undetectable level compared with CnKBL(WT)"}
    ]}
  ]
}
